≈ marks a conversion by molar mass, not a printed value.
Key:
Assay type in all cases: cell-based
[1] = system: Staphylococcus aureus 209 P; test: Minimum Inhibitory Concentration, Staphylococcus aureus 209 P; details: Staphylococcus aureus 209 P; read-out: Minimum Inhibitory Concentration
Method: (§1) anti-microbial activity tests were carried out on the compounds obtained in the Examples.

[2] = system: Staphylococcus aureus FS 289; test: Minimum Inhibitory Concentration, Staphylococcus aureus FS 289; details: FS289; Staphylococcus aureus FS 289, strain resistant to penicillin; read-out: Minimum Inhibitory Concentration
Method: as §1
*Staphylococcus aureus FS 289: strain resistant to penicillin

[3] = system: Escherichia coli NIHJ; test: Minimum Inhibitory Concentration, Escherichia coli NIHJ; details: Escherichia coli NIHJ; read-out: Minimum Inhibitory Concentration
Method: as §1

[4] = system: Klebsiella pneumoniae 602; test: Minimum Inhibitory Concentration, Klebsiella pneumoniae 602; details: Klebsiella pneumoniae, 602, Klebsiella pneumoniae 602; read-out: Minimum Inhibitory Concentration
Method: as §1

[5] = system: Proteus vulgaris HX 19; test: Minimum Inhibitory Concentration, Proteus vulgaris HX 19; details: HX19; Proteus vulgaris HX 19; read-out: Minimum Inhibitory Concentration
Method: as §1

[6] = system: Pseudomonas aeruginosa 104; test: Minimum Inhibitory Concentration, Pseudomonas aeruginosa 104; details: Pseudomonas aeruginosa 104; read-out: Minimum Inhibitory Concentration
Method: as §1

[7] = system: Serratia No. 72; test: Minimum Inhibitory Concentration, Serratia No. 72
Method: as §1

[8] = system: Enterobacter aerogeneus No. 75; test: Minimum Inhibitory Concentration, Enterobacter aerogeneus No. 75; details: Enterobacter aerogeneus No. 75; read-out: Minimum Inhibitory Concentration
Method: as §1

Row | Structure (SMILES) | MIC [1] [µg/mL] | MIC [2] [µg/mL] | MIC [3] [µg/mL] | MIC [4] [µg/mL] | MIC [5] [µg/mL] | MIC [6] [µg/mL] | MIC [7] [µg/mL] | MIC [8] [µg/mL]
1 | Nc1cccc(C(NC(=O)c2ccnnc2O)C(=O)NC2C(=O)N3C(C(=O)O)=C(CSc4nnc(CO)s4)CSC23)c1 (stereo not drawn) [Example 86] | 0.78 (≈ 1.24 µM) | 6.25 (≈ 9.91 µM) | 12.5 (≈ 19.8 µM) | 6.25 (≈ 9.91 µM) | 0.39 (≈ 0.618 µM) | 12.5 (≈ 19.8 µM) | 50 (≈ 79.3 µM) | 12.5 (≈ 19.8 µM)
2 | Nc1cccc(C(NC(=O)c2ccnnc2O)C(=O)NC2C(=O)N3C(C(=O)O)=C(CSc4ccc(O)nn4)CSC23)c1 (stereo not drawn) [Example 87] | 0.78 (≈ 1.28 µM) | 6.25 (≈ 10.2 µM) | 12.5 (≈ 20.5 µM) | 6.25 (≈ 10.2 µM) | 0.78 (≈ 1.28 µM) | 12.5 (≈ 20.5 µM) | 50 (≈ 81.9 µM) | 12.5 (≈ 20.5 µM)
3 | Cn1nnnc1SCC1=C(C(=O)O)N2C(=O)C(NC(=O)C(NC(=O)c3cnccc3O)c3ccc(CO)cc3)C2SC1 (stereo not drawn) [Example 91] | 0.78 (≈ 1.27 µM) | 6.25 (≈ 10.2 µM) | 12.5 (≈ 20.4 µM) | 12.5 (≈ 20.4 µM) | 0.39 (≈ 0.637 µM) | 12.5 (≈ 20.4 µM) | 50 (≈ 81.6 µM) | 25 (≈ 40.8 µM)
4 | CC(=O)OCC1=C(C(=O)O)N2C(=O)C(NC(=O)C(NC(=O)c3ccnnc3O)c3ccc(CO)cc3)C2SC1 (stereo not drawn) [Example 92] | 0.78 (≈ 1.4 µM) | 6.25 (≈ 11.2 µM) | 25 (≈ 44.8 µM) | 12.5 (≈ 22.4 µM) | 0.39 (≈ 0.7 µM) | 12.5 (≈ 22.4 µM) | > 200 | 25 (≈ 44.8 µM)
5 | Cc1nnc(SCC2=C(C(=O)O)N3C(=O)C(NC(=O)C(NC(=O)c4ccnnc4O)c4ccc(CO)cc4)C3SC2)s1 (stereo not drawn) [Example 93] | 0.78 (≈ 1.24 µM) | 12.5 (≈ 19.9 µM) | 12.5 (≈ 19.9 µM) | 12.5 (≈ 19.9 µM) | 0.2 (≈ 0.318 µM) | 12.5 (≈ 19.9 µM) | 50 (≈ 79.4 µM) | 25 (≈ 39.7 µM)
6 | Cn1nnnc1SCC1=C(C(=O)O)N2C(=O)C(NC(=O)C(NC(=O)c3cncnc3O)c3ccc(CO)cc3)C2SC1 (stereo not drawn) [Example 94] | 0.78 (≈ 1.27 µM) | 12.5 (≈ 20.4 µM) | 25 (≈ 40.7 µM) | 12.5 (≈ 20.4 µM) | 0.78 (≈ 1.27 µM) | 25 (≈ 40.7 µM) | 50 (≈ 81.5 µM) | 25 (≈ 40.7 µM)
7 | O=C(O)C1=C(CSc2nncs2)CSC2C(NC(=O)C(NC(=O)c3cncnc3O)c3ccc(CO)cc3)C(=O)N12 (stereo not drawn) [Example 95] | 0.78 (≈ 1.27 µM) | 12.5 (≈ 20.3 µM) | 25 (≈ 40.6 µM) | 12.5 (≈ 20.3 µM) | 0.78 (≈ 1.27 µM) | 25 (≈ 40.6 µM) | 50 (≈ 81.2 µM) | 25 (≈ 40.6 µM)
8 | Cc1nnc(SCC2=C(C(=O)O)N3C(=O)C(NC(=O)C(NC(=O)c4cnc5cccnc5c4O)c4ccc(CO)cc4)C3SC2)s1 (stereo not drawn) [Example 96] | 1.56 (≈ 2.29 µM) | 6.25 (≈ 9.19 µM) | 3.13 (≈ 4.6 µM) | 1.56 (≈ 2.29 µM) | 0.2 (≈ 0.294 µM) | 6.25 (≈ 9.19 µM) | 12.5 (≈ 18.4 µM) | 6.25 (≈ 9.19 µM)
9 | Cn1nnnc1SCC1=C(C(=O)O)N2C(=O)C(NC(=O)C(NC(=O)c3cnc4cccnc4c3O)c3ccc(CO)cc3)C2SC1 (stereo not drawn) [Example 97] | 1.56 (≈ 2.35 µM) | 6.25 (≈ 9.42 µM) | 1.56 (≈ 2.35 µM) | 1.56 (≈ 2.35 µM) | 0.2 (≈ 0.301 µM) | 6.25 (≈ 9.42 µM) | 25 (≈ 37.7 µM) | 6.25 (≈ 9.42 µM)
10 | O=C(O)C1=C(CSc2cnn[nH]2)CSC2C(NC(=O)C(NC(=O)c3cnc4cccnc4c3O)c3ccc(CO)cc3)C(=O)N12 (stereo not drawn) [Example 98] | 1.56 (≈ 2.4 µM) | 6.25 (≈ 9.63 µM) | 1.56 (≈ 2.4 µM) | 1.56 (≈ 2.4 µM) | 0.2 (≈ 0.308 µM) | 6.25 (≈ 9.63 µM) | 25 (≈ 38.5 µM) | 6.25 (≈ 9.63 µM)
11 | CC(=O)OCC1=C(C(=O)O)N2C(=O)C(NC(=O)C(NC(=O)c3cnc4nc(C)ccc4c3O)c3ccc(CO)cc3)C2SC1 (stereo not drawn) [Example 99] | 1.56 (≈ 2.51 µM) | 6.25 (≈ 10.1 µM) | 6.25 (≈ 10.1 µM) | 6.25 (≈ 10.1 µM) | 0.78 (≈ 1.25 µM) | 12.5 (≈ 20.1 µM) | 50 (≈ 80.4 µM) | 12.5 (≈ 20.1 µM)
12 | Cc1ccc2c(O)c(C(=O)NC(C(=O)NC3C(=O)N4C(C(=O)O)=C(CSc5nnc(C)s5)CSC34)c3ccc(CO)cc3)cnc2n1 (stereo not drawn) [Example 100] | 1.56 (≈ 2.25 µM) | 6.25 (≈ 9.01 µM) | 3.13 (≈ 4.51 µM) | 6.25 (≈ 9.01 µM) | 0.39 (≈ 0.562 µM) | 6.25 (≈ 9.01 µM) | 50 (≈ 72.1 µM) | 6.25 (≈ 9.01 µM)
13 | O=C(O)C1=C(CSc2ccc(O)nn2)CSC2C(NC(=O)C(NC(=O)c3cnc4cccnc4c3O)c3ccc(CO)cc3)C(=O)N12 (stereo not drawn) [Example 102] | 1.56 (≈ 2.31 µM) | 6.25 (≈ 9.25 µM) | 3.13 (≈ 4.63 µM) | 3.13 (≈ 4.63 µM) | 0.39 (≈ 0.577 µM) | 6.25 (≈ 9.25 µM) | 25 (≈ 37 µM) | 12.5 (≈ 18.5 µM)
14 | O=C(O)C1=C(CSc2nnc(CO)s2)CSC2C(NC(=O)C(NC(=O)c3cnc4cccnc4c3O)c3ccc(CO)cc3)C(=O)N12 (stereo not drawn) [Example 103] | 1.56 (≈ 2.24 µM) | 6.25 (≈ 8.98 µM) | 3.13 (≈ 4.5 µM) | 3.13 (≈ 4.5 µM) | 0.2 (≈ 0.287 µM) | 6.25 (≈ 8.98 µM) | 12.5 (≈ 18 µM) | 12.5 (≈ 18 µM)
15 | CSc1cnc2c(O)c(C(=O)NC(C(=O)NC3C(=O)N4C(C(=O)O)=C(CSc5nnc(C)s5)CSC34)c3ccc(CO)cc3)cnc2n1 (stereo not drawn) [Example 104] | 1.56 (≈ 2.15 µM) | 6.25 (≈ 8.6 µM) | 6.25 (≈ 8.6 µM) | 3.13 (≈ 4.31 µM) | 0.39 (≈ 0.537 µM) | 6.25 (≈ 8.6 µM) | 12.5 (≈ 17.2 µM) | 12.5 (≈ 17.2 µM)
16 | Cc1nc2ncc(C(=O)NC(C(=O)NC3C(=O)N4C(C(=O)O)=C(CSc5nnnn5C)CSC34)c3ccc(CO)cc3)c(O)c2nc1C (stereo not drawn) [Example 105] | 0.78 (≈ 1.13 µM) | 6.25 (≈ 9.02 µM) | 6.25 (≈ 9.02 µM) | 3.13 (≈ 4.52 µM) | 0.2 (≈ 0.289 µM) | 6.25 (≈ 9.02 µM) | 12.5 (≈ 18 µM) | 12.5 (≈ 18 µM)
17 | COc1ccc2ncc(C(=O)NC(C(=O)NC3C(=O)N4C(C(=O)O)=C(CSc5cnn[nH]5)CSC34)c3ccc(CO)cc3)c(O)c2n1 (stereo not drawn) [Example 106] | 1.56 (≈ 2.3 µM) | 6.25 (≈ 9.21 µM) | 3.13 (≈ 4.61 µM) | 1.56 (≈ 2.3 µM) | 0.2 (≈ 0.295 µM) | 6.25 (≈ 9.21 µM) | 12.5 (≈ 18.4 µM) | 6.25 (≈ 9.21 µM)
18 | Cc1nnc(SCC2=C(C(=O)O)N3C(=O)C(NC(=O)C(NC(=O)c4cnc5ccc(N(C)C)nc5c4O)c4ccc(CO)cc4)C3SC2)s1 (stereo not drawn) [Example 107] | 1.56 (≈ 2.16 µM) | 6.25 (≈ 8.65 µM) | 3.13 (≈ 4.33 µM) | 1.56 (≈ 2.16 µM) | 0.1 (≈ 0.138 µM) | 6.25 (≈ 8.65 µM) | 12.5 (≈ 17.3 µM) | 6.25 (≈ 8.65 µM)
19 | Cn1nnnc1SCC1=C(C(=O)O)N2C(=O)C(NC(=O)C(NC(=O)c3cnc4cncnc4c3O)c3ccc(CO)cc3)C2SC1 (stereo not drawn) [Example 108] | 1.56 (≈ 2.35 µM) | 12.5 (≈ 18.8 µM) | 3.13 (≈ 4.71 µM) | 3.13 (≈ 4.71 µM) | 0.2 (≈ 0.301 µM) | 6.25 (≈ 9.4 µM) | 25 (≈ 37.6 µM) | 6.25 (≈ 9.4 µM)
20 | CSc1ncc2c(O)c(C(=O)NC(C(=O)NC3C(=O)N4C(C(=O)O)=C(CSc5nnnn5C)CSC34)c3ccc(CO)cc3)cnc2n1 (stereo not drawn) [Example 109] | 1.56 (≈ 2.19 µM) | 12.5 (≈ 17.6 µM) | 6.25 (≈ 8.79 µM) | 6.25 (≈ 8.79 µM) | 0.78 (≈ 1.1 µM) | 12.5 (≈ 17.6 µM) | 50 (≈ 70.3 µM) | 12.5 (≈ 17.6 µM)
21 | O=C(O)C1=C(CSc2nnc(CO)s2)CSC2C(NC(=O)C(NC(=O)c3cnccc3O)c3ccc(CO)cc3)C(=O)N12 (stereo not drawn) [Example 110] | 0.78 (≈ 1.21 µM) | 6.25 (≈ 9.69 µM) | 12.5 (≈ 19.4 µM) | 12.5 (≈ 19.4 µM) | 0.39 (≈ 0.605 µM) | 12.5 (≈ 19.4 µM) | 100 (≈ 155 µM) | 25 (≈ 38.8 µM)

— US4156724A, “N-acylamino-alpha-arylacetamido cephalosporins and antibacterial compositions and methods containing them” (Sumitomo Chemical Company, Limited, priority 1974, dated 1979)
